Measurements: patent US10716749B2, “Methods and compositions for treating a renal disease condition in a subject” (Palo Alto Investors, priority 2005, dated 2020)

Tests used:
[1] = test system: Patients with a clinical diagnosis of hypertension; test: Intrarenal administration of a renin inhibitor to treat hypertension; assay type: in vivo, human; conditions: weekly infusions via an intrarenal catheter; control: saline infusions; sphygmomanometer
Description: Patients are enrolled on the basis of a clinical diagnosis of hypertension based on serial systolic and diastolic blood pressure measurements by sphygmomanometer. Treatment subjects are treated by weekly infusions of Aliskiren via an intrarenal catheter.

[2] = test system: Patients with anticipated use of radiocontrast prior to diagnostic coronary catherization; test: Intrarenal administration of metoprolol to prevent contrast nephropathy; assay type: in vivo, human; conditions: intrarenal infusion 1 hour prior to the procedure; patients receiving radiocontrast
Description: Patients are prospectively enrolled on the basis of anticipated use of radiocontrast prior to a scheduled diagnostic coronary catherization. Treatment subjects are treated by intrarenal infusion of metoprolol 1 hour prior to the procedure.

Row | Compound | diastolic blood pressure measurements compared to control [1] | systolic blood pressure measurements compared to control [1] | incidence of contrast nephropathy (as indicated by a greater than 25% increase in serum creatinine post-procedure) as compared to control [2]
1 | COCCCOc1cc(C[C@@H](C[C@H](N)[C@@H](O)C[C@H](C(=O)NCC(C)(C)C(N)=O)C(C)C)C(C)C)ccc1OC [Aliskiren] | significant reduction | significant reduction | 
2 | COCCc1ccc(OCC(O)CNC(C)C)cc1 (stereo not drawn) [metoprolol] |  |  | significant reduction
